Results taken from US12128084B2, “Use of PAYCS in regulation of intestinal flora, metabolites, and brain neurotransmitters” (Sericulture and Agri-Food Research Institute, Guangdong …, priority 2022, dated 2024).

What was measured:
Type in all cases: in vivo
[1] = test system: mice with amnesia induced by scopolamine; experiment: behavioral test (jumping test, swimming test; training part and test part) in scopolamine-induced amnesic mice
Method: The mice were tested for a jumping test (FIG. 1A), swimming speed (FIG. 1), swimming distance (FIG. 1C), the number of crossings on the target platform (FIG. 1D), the number of crossings on the target quadrants (FIG. 1E), the escape latency and the error times (FIG. 1F) during the training. In the test part, the swimming distance, the swimming speed, number of crossings on target quadrant (FIG. 1G), the number of crossings on the target platform, and escape latency (H) were determined. In these figures, #: compared with the control group, P<0.05; compared with the control group, P<0.01; *: compared model group, P<0.05; **: compared with the model group, P<0.01.
FIG. 7 is an experiment designed to evaluate the effect of PAYCS-L (lower dose of SEQ ID NO: 1) and PAYCS-H (higher dose of SEQ ID NO: 1) on learning and memory function in mice with amnesia induced by scopolamine.

[2] = test system: MDA, LDH, SOD, GP(x) in liver and serum; experiment: liver and serum oxidation indexes of amnesic mice
[3] = test system: IL-1β and TNF-α in liver and serum; experiment: liver and serum inflammatory indexes of amnesic mice
intestinal microflora = experiment: 16S rRNA analysis of intestinal microflora of amnesic mice
Excerpt: The symbols * and ** represent P<0.05 and P<0.01, respectively.

fecal metabolites = fecal metabolites of amnesic mice
Excerpt: The scores of variable importance in projection (VIP) for symbol ** and symbol *** are P<0.05, P<0.01, and P<0.001 respectively.

brain neurotransmitters = brain neurotransmitters of amnesic mice
[4] = scopolamine-induced amnesic mice
[5] = PAYCS-H (higher dose), scopolamine-induced amnesic mice

Substance: Pro-Ala-Tyr-Cys-Ser (PAYCS; sequence of the peptide ProAlaTyrCysSer)
- cognitive function in the test part of the behavioral test ([1]; PAYCS-H (0.4 g/kg bw, higher dose), 3 weeks of treatment, scopolamine-induced mouse model): better improvement
- memory enhancement in the training part of the behavioral test ([1]; PAYCS-L (0.2 g/kg bw, lower dose), 3 weeks of treatment, scopolamine-induced mouse model): better effect of memory enhancement
- memory deficits in amnesic mice ([1]; PAYCS-L (lower dose)): partially reverses
- scopolamine-induced memory impairment in mice ([1]; mouse, in vivo): remedies
- antioxidant effect ([2]; PAYCS-H (higher dose)): good
- oxidative stress in the liver and serum ([2]; PAYCS-H (higher dose)): reverses
- liver and serum deficits ([2]; mouse, in vivo): positive effect
- LDH level in serum [2, 4]: significantly reduce
- MDA level in serum [2, 4]: significantly reduce
- SOD content in the liver [2, 4]: significantly increase
- anti-inflammatory effect ([3]; PAYCS-H (higher dose)): good
- inflammatory stress in the liver and serum ([3]; PAYCS-H (higher dose)): reverses
- IL-1β in the liver [3, 5]: inhibit the increase
- TNF-α in the liver [3, 5]: inhibit the increase
- content of TNF-α in the liver ([3]; PAYCS-L (lower dose), scopolamine-induced amnesic mice, only TNF-α): reduces
- relative abundance of Cacteroidaceae (intestinal microflora; 16S rRNA analysis): increased
- relative abundance of Prevotellaceae (intestinal microflora; 16S rRNA analysis): increased
- intestinal microorganisms (intestinal microflora; PAYCS-H (higher dose)): re-modulates
- abundance of intestinal microorganism population in amnesic mice (intestinal microflora; PAYCS-L (lower dose)): reconstitutes
- ratio of Bacteroidetes/Firmicutes (intestinal microflora; PAYCS-L (lower dose), 16S rRNA analysis): changed
- fecal metabolites (fecal metabolites; PAYCS-H (higher dose)): re-modulates
- memory-related metabolites (fecal metabolites; e.g. Panax notoginseng saponins and cholinergic acid): significantly up-regulated
- memory-related metabolites (fecal metabolites; e.g. blumealactone C, thalictroidine, notoginsenoside M, 3a,7a,12b-trihydroxy-5b-cholanoic acid, sequiterpene lactone 326, helenalin, cholic acid): significantly up-regulated
- fecal metabolites in amnesic mice (fecal metabolites; mouse, in vivo): regulatory effect
- neurotransmitters (brain neurotransmitters; e.g. Ach, GABA, Glu, HisA, Kyn): significantly up-regulated
- brain neurotransmitters in amnesic mice (brain neurotransmitters; mouse, in vivo): regulatory effect
- tryptophan metabolism-related neurotransmitters in the brain (brain neurotransmitters; mouse, in vivo): improves
